# Experimental data from patent publication US12139488B2, “Pyrido[3,2-d]pyrimidine compounds uses thereof for treating a proliferative disease” (Universite de Montreal, priority 2021, dated 2024).
# Target: BRAF (Homo sapiens (Human), UniProt P15056)
# Assay: BRAF kinase activity assay (ADP-Glo)
# Assay type: biochemical
# Details: read-out: Kinase IC50 (nM) BRAF
# Experimental: (§1) Compound preparation: solid samples of each substances in 1 dram vials were suspended in DMSO (Fisher Scientific) at a stock concentration of 20 mM. Stocks were kept at −20° C. and protected from light.
# (§2) In vitro enzymatic reactions were used for evaluating compounds intrinsic activity against BRAF, CRAF and ARAF. […] Separate reactions were performed with the MEK1 substrate and ATP as a blank control.
# (§3) For compound treatment, 5 μL/well of test substance solution are placed in a 384-well proxyplate (Perkin Elmer) and mixed with 2× concentrated kinase reactions. The dilution series is selected so that nine concentrations cover a range from 100 nM to 0.01 nM. […] The final concentration of DMSO in the assay is set at 0.05%.
# (§4) BRAF and CRAF kinase reactions were carried out for a total of 2 hours at 30° C. and then stopped by ½ dilution in ADP-Glo Reagent (cat #V9102; Promega; part V912C). Reactions were then incubated for 1h at room temperature before addition of one volume of Kinase Detection Reagent (cat #V9102; Promega; part V917A). Plates were then equilibrated at room temperature for 30 minutes before detection of luminescence on a Synergy Neo2 plate reader (Biotek). The effect of each compound dilution on BRAF and CRAF kinase activity was expressed as % inhibition and calculated as follows.
# (§5) IC50 values were obtained by plotting the kinase inhibition values and fitting the dose-activity curves using a log(agonist) versus response-variable slope (four parameters) function using either GraphPadPrism (V7.0) or Dotmatics Screening Ultra platform.
# BRAF, sequence (P15056 whole entry): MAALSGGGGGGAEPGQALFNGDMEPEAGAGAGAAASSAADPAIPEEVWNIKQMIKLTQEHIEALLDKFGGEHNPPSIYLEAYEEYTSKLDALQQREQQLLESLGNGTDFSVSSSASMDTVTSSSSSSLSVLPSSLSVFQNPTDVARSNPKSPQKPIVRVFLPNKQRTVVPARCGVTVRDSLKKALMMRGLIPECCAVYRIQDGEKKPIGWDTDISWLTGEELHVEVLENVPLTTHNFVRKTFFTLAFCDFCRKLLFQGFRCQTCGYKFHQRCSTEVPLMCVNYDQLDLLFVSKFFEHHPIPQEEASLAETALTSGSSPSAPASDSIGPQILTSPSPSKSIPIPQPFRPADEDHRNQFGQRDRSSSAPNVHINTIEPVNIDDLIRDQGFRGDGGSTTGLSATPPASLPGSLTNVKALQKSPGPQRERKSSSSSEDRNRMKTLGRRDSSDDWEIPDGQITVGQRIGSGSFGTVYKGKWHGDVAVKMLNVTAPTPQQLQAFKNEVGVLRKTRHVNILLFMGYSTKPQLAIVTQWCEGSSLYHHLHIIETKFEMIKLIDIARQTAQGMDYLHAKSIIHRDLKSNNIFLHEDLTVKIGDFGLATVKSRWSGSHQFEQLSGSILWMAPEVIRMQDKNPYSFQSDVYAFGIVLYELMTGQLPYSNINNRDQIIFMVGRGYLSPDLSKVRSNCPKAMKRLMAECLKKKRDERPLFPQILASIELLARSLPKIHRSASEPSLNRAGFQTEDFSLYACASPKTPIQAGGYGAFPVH
row,IC50 [nM],SMILES
1,1 to 10,CNC(=O)c1cn(-c2ccc3ncnc(Nc4c(F)ccc(NS(=O)(=O)c5ccccc5Cl)c4F)c3n2)c2ccccc12 [Ex 86]

# Target: CRAF (Homo sapiens, UniProt P04049)
# Sequence (P04049 whole entry, looked up): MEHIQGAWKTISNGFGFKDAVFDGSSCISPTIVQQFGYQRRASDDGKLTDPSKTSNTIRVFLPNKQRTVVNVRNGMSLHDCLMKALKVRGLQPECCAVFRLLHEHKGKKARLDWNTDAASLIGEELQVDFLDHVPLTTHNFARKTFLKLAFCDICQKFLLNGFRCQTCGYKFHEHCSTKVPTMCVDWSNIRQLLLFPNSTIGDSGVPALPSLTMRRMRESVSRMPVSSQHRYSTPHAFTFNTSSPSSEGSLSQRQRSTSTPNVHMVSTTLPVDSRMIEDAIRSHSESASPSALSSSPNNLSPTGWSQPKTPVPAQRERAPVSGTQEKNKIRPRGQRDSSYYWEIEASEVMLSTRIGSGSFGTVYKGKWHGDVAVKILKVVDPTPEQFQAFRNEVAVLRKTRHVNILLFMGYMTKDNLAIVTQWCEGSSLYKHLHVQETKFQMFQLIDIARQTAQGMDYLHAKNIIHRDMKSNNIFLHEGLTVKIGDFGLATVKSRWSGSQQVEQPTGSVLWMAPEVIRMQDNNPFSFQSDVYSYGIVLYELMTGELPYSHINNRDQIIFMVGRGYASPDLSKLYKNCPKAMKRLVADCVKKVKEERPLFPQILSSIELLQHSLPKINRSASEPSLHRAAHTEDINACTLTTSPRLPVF
# Assay: CRAF kinase activity assay (ADP-Glo)
# Assay type: biochemical
# Details: CRAF; read-out: Kinase IC50 (nM), CRAF biochemical kinase assay
# Experimental: as §1, §2, §3, §4, §5
row,IC50 [nM],SMILES
1,< 10,O=S1(=O)CCN(c2cccc3c2ncn3-c2ccc3ncnc(Nc4c(F)ccc(NS(=O)(=O)c5cccc(Cl)c5Cl)c4F)c3n2)CC1 [Example 628]

# Same assay, conditions: read-out: Kinase IC50 (nM) CRAF
row,IC50 [nM],SMILES
1,10 to 50,CNC(=O)c1cn(-c2ccc3ncnc(Nc4c(F)ccc(NS(=O)(=O)c5ccccc5Cl)c4F)c3n2)c2ccccc12 [Ex 86]

# Test system: pERK in HCT-116 cells (KRAS G13D)
# Assay: Phospho-ERK inhibition (AlphaLISA SureFire Ultra p-ERK 1/2), HCT116
# Assay type: cell-based, human
# Details: HCT116 cells
# Experimental: (§6) All cancer cell lines (A375, A101D, A2058, RKO, HT29 SK-MEL 30, IPC298, HepG2, HCT-116, Lovo, SWV620, SW480, NCI-H358, NCI-H2122, Calu-6, NCIH2087, NCIH1755, NCIH1666 and Mewo) were obtained from ATCC and cultured in RPMI-1640 medium (Gibco) supplemented with 5% heat inactivated fetal bovine serum (FBS, Wisent) at 37° C. under 5% CO2. Cells were maintained in T175 flasks (Greiner). They were passaged by removing the culture medium, washing once in 10 mL of room temperature Phosphate Buffered Saline (PBS; Wisent) and incubating at 37° C. with 2 mL of 0.05% Trypsin (Thermo-Fisher). Trypsin was then inactivated by adding complete growth medium and the cells were then replated in a T175 culture dish at the appropriate dilution. All cell lines were routinely tested for mycoplasma contamination. Tissue type and mutational status of each cell line can be found in Table B.
# (§7) AlphaLISA® SureFire® Ultra™ p-ERK 1/2 (Thr202/Tyr204) analysis was conducted on cells plated in 100 μL of complete RPMI-1640 growth medium in 96-well flat-bottomed transparent dishes (Costar) at a density indicated in Table C. Cells were maintained overnight at 37° C. under 5% CO2 before treatment with compounds' dilution series for one hour. The cell density in cells/cm^2 corresponds to cell number divided by the area of one well of a 96-well plate ([…]).
# (§8) In a dilution series 100 μL/well of test substance dilution prepared in complete RPMI-1640 growth media was added to the cells. The dilution series is selected so that ten concentrations cover a range from 10 μM to 0.33 nM. If necessary the initial concentration of 10 μM is increased to 100 μM or lowered to 1 μM (as in the case of A375 and H1666 cells, which are generally more sensitive to the compounds) and further dilution is carried out accordingly. The final concentration of DMSO in the assay is set at 0.5%.
# (§9) After treatment, media was removed and cells were lysed in 50 μL of 1× AlphaScreen Ultra Lysis Buffer (Perkin Elmer). The AlphaLISA® SureFire® Ultra™ p-ERK 1/2 (Thr202/Tyr2O4) (PerkinElmer) reactions were performed with 5 μL of cell lysate according to the manufacturer's specifications in 384-well proxyplates (Perkin Elmer) followed by overnight incubation of the reactions at room temperature in a humidified chamber. After completion of the reactions, the signals were recorded on an EnVision plate reader (Perkin Elmer) using built in AlphaLISA® settings.
# (§10) The effect of each compound dilution on the pERK signal was expressed in % inhibition and calculated as follows. An internal 100% inhibition control ([…] trametinib, cat #HY-10999; MedChem Express; CAS #871700-17-3) was included in each plate and used as a measure of pERK background. First, the value obtained for trametinib was subtracted from each data point. The average of DMSO (vehicle) controls (set as 0% inhibition) was established and used to calculate % inhibition: % inhibition=100*(1-((pERK signalcompound)/(pERK signalDMSO)))
# (§11) The ability of each compound to inhibit pERK signal was expressed as an IC50 value obtained by plotting the inhibition values for each data point of a dilution series and fitting the obtained curves using a log(agonist) versus response-variable slope (four parameters) function using GraphPadPrism (V7.0) or Dotmatics Screening Ultra platform.
# (§12) When present, paradoxical pERK induction is inferred from the negative % inhibition values observed in the pERK IC50 curves of a compound.
row,IC50 [nM],SMILES
1,500 to 1000,O=S1(=O)CCN(c2cccc3c2ncn3-c2ccc3ncnc(Nc4c(F)ccc(NS(=O)(=O)c5cccc(Cl)c5Cl)c4F)c3n2)CC1 [Example 628]

# Same assay, conditions: HCT116 cells; Ymin above −20% = minimal or no paradoxical activation
row,HCT116 pERK % Ymin (lowest value of the IC50 curve) [%],SMILES
1,0,O=S1(=O)CCN(c2cccc3c2ncn3-c2ccc3ncnc(Nc4c(F)ccc(NS(=O)(=O)c5cccc(Cl)c5Cl)c4F)c3n2)CC1 [Example 628]

# Same assay, conditions: HCT116 cells; Ymin in brackets
row,SMILES,HCT116 pERK Ymin % [%]
1,COc1ccc(S(=O)(=O)Nc2ccc(F)c(Nc3ncnc4ccc(-n5cnc(C)c5C)nc34)c2F)cc1 [Ex 32],17
2,COc1ccc(S(=O)(=O)Nc2ccc(F)c(Nc3ncnc4ccc(-n5ccnc5)nc34)c2F)cc1 [Ex 33],5
3,COc1ccc(S(=O)(=O)Nc2ccc(F)c(Nc3ncnc4ccc(-c5cncnc5)nc34)c2F)c(C)c1 [Ex 56],−9
4,COc1ccc(S(=O)(=O)Nc2ccc(F)c(Nc3ncnc4ccc(-c5cnc(OC)nc5)nc34)c2F)c(C)c1 [Ex 57],-8
5,COc1ccc(S(=O)(=O)Nc2ccc(F)c(Nc3ncnc4ccc(-c5ccsc5)nc34)c2F)c(C)c1 [Ex 58],−1
6,COc1ccc(S(=O)(=O)Nc2ccc(F)c(Nc3ncnc4ccc(-n5cnc6nccnc65)nc34)c2F)c(C)c1 [Ex 60],−10
7,COc1ccc(S(=O)(=O)Nc2ccc(F)c(Nc3ncnc4ccc(-c5cnc6ccccc6c5)nc34)c2F)c(C)c1 [Ex 61],−8
8,COc1ccc(S(=O)(=O)Nc2ccc(F)c(Nc3ncnc4ccc(-c5ccncc5)nc34)c2F)c(C)c1 [Ex 63],−2.1
9,COc1ccc(S(=O)(=O)Nc2ccc(F)c(Nc3ncnc4ccc(-c5cn[nH]c5)nc34)c2F)c(C)c1 [Ex 64],4
10,COc1ccc(S(=O)(=O)Nc2ccc(F)c(Nc3ncnc4ccc(-c5cnn(C)c5)nc34)c2F)c(C)c1 [Ex 65],−7
11,COc1ccc(S(=O)(=O)Nc2ccc(F)c(Nc3ncnc4ccc(-c5cccc(O)c5)nc34)c2F)c(C)c1 [Ex 72],1
12,CNC(=O)c1cn(-c2ccc3ncnc(Nc4c(F)ccc(NS(=O)(=O)c5ccccc5Cl)c4F)c3n2)c2ccccc12 [Ex 86],−10

# Same assay, conditions: HCT116 cells; class symbol before the bracket
row,SMILES,IC50 [nM]
1,COc1ccc(S(=O)(=O)Nc2ccc(F)c(Nc3ncnc4ccc(-n5cnc(C)c5C)nc34)c2F)cc1 [Ex 32],1000 to 10000
2,COc1ccc(S(=O)(=O)Nc2ccc(F)c(Nc3ncnc4ccc(-n5ccnc5)nc34)c2F)cc1 [Ex 33],1000 to 10000
3,COc1ccc(S(=O)(=O)Nc2ccc(F)c(Nc3ncnc4ccc(-c5cnc(OC)nc5)nc34)c2F)c(C)c1 [Ex 57],1000 to 10000
4,COc1ccc(S(=O)(=O)Nc2ccc(F)c(Nc3ncnc4ccc(-c5cnc6ccccc6c5)nc34)c2F)c(C)c1 [Ex 61],1000 to 10000
5,COc1ccc(S(=O)(=O)Nc2ccc(F)c(Nc3ncnc4ccc(-c5cn[nH]c5)nc34)c2F)c(C)c1 [Ex 64],1000 to 10000
6,COc1ccc(S(=O)(=O)Nc2ccc(F)c(Nc3ncnc4ccc(-c5cnn(C)c5)nc34)c2F)c(C)c1 [Ex 65],10000 to 30000
7,COc1ccc(S(=O)(=O)Nc2ccc(F)c(Nc3ncnc4ccc(-c5cccc(O)c5)nc34)c2F)c(C)c1 [Ex 72],1000 to 10000
8,CNC(=O)c1cn(-c2ccc3ncnc(Nc4c(F)ccc(NS(=O)(=O)c5ccccc5Cl)c4F)c3n2)c2ccccc12 [Ex 86],1000 to 10000

# Results, then the molecule that gave them:
row,IC50 [nM],SMILES
1,1000 to 10000,COc1ccc(S(=O)(=O)Nc2ccc(F)c(Nc3ncnc4ccc(-c5cncnc5)nc34)c2F)c(C)c1 [Ex 56]
2,10000 to 30000,COc1ccc(S(=O)(=O)Nc2ccc(F)c(Nc3ncnc4ccc(-c5ccsc5)nc34)c2F)c(C)c1 [Ex 58]
3,1000 to 10000,COc1ccc(S(=O)(=O)Nc2ccc(F)c(Nc3ncnc4ccc(-n5cnc6nccnc65)nc34)c2F)c(C)c1 [Ex 60]
4,1000 to 10000,COc1ccc(S(=O)(=O)Nc2ccc(F)c(Nc3ncnc4ccc(-c5ccncc5)nc34)c2F)c(C)c1 [Ex 63]

# Test system: pERK in SW480 cells (KRAS G12D)
# Assay: Phospho-ERK inhibition (AlphaLISA), SW480
# Assay type: cell-based, human
# Details: SW480 cells; Ymin in brackets
# Experimental: as §6, §7, §8, §9, §10, §11, §12
row,SMILES,SW480 pERK Ymin % [%]
1,COc1ccc(S(=O)(=O)Nc2ccc(F)c(Nc3ncnc4ccc(-n5cnc(C)c5C)nc34)c2F)cc1 [Ex 32],2
2,COc1ccc(S(=O)(=O)Nc2ccc(F)c(Nc3ncnc4ccc(-n5ccnc5)nc34)c2F)cc1 [Ex 33],0
3,COc1ccc(S(=O)(=O)Nc2ccc(F)c(Nc3ncnc4ccc(-c5cncnc5)nc34)c2F)c(C)c1 [Ex 56],7
4,COc1ccc(S(=O)(=O)Nc2ccc(F)c(Nc3ncnc4ccc(-c5cnc(OC)nc5)nc34)c2F)c(C)c1 [Ex 57],-9
5,COc1ccc(S(=O)(=O)Nc2ccc(F)c(Nc3ncnc4ccc(-c5ccsc5)nc34)c2F)c(C)c1 [Ex 58],2
6,COc1ccc(S(=O)(=O)Nc2ccc(F)c(Nc3ncnc4ccc(-n5cnc6nccnc65)nc34)c2F)c(C)c1 [Ex 60],10
7,COc1ccc(S(=O)(=O)Nc2ccc(F)c(Nc3ncnc4ccc(-c5cnc6ccccc6c5)nc34)c2F)c(C)c1 [Ex 61],3
8,COc1ccc(S(=O)(=O)Nc2ccc(F)c(Nc3ncnc4ccc(-c5ccncc5)nc34)c2F)c(C)c1 [Ex 63],10
9,COc1ccc(S(=O)(=O)Nc2ccc(F)c(Nc3ncnc4ccc(-c5cn[nH]c5)nc34)c2F)c(C)c1 [Ex 64],16
10,COc1ccc(S(=O)(=O)Nc2ccc(F)c(Nc3ncnc4ccc(-c5cnn(C)c5)nc34)c2F)c(C)c1 [Ex 65],14
11,COc1ccc(S(=O)(=O)Nc2ccc(F)c(Nc3ncnc4ccc(-c5cccc(O)c5)nc34)c2F)c(C)c1 [Ex 72],−7

# Same assay, conditions: SW480 cells; class symbol before the bracket
row,SMILES,IC50 [nM]
1,COc1ccc(S(=O)(=O)Nc2ccc(F)c(Nc3ncnc4ccc(-n5cnc(C)c5C)nc34)c2F)cc1 [Ex 32],1000 to 10000
2,COc1ccc(S(=O)(=O)Nc2ccc(F)c(Nc3ncnc4ccc(-n5ccnc5)nc34)c2F)cc1 [Ex 33],1000 to 10000
3,COc1ccc(S(=O)(=O)Nc2ccc(F)c(Nc3ncnc4ccc(-c5cnc(OC)nc5)nc34)c2F)c(C)c1 [Ex 57],1000 to 10000
4,COc1ccc(S(=O)(=O)Nc2ccc(F)c(Nc3ncnc4ccc(-c5cnc6ccccc6c5)nc34)c2F)c(C)c1 [Ex 61],1000 to 10000
5,COc1ccc(S(=O)(=O)Nc2ccc(F)c(Nc3ncnc4ccc(-c5cn[nH]c5)nc34)c2F)c(C)c1 [Ex 64],1000 to 10000
6,COc1ccc(S(=O)(=O)Nc2ccc(F)c(Nc3ncnc4ccc(-c5cnn(C)c5)nc34)c2F)c(C)c1 [Ex 65],500 to 1000
7,COc1ccc(S(=O)(=O)Nc2ccc(F)c(Nc3ncnc4ccc(-c5cccc(O)c5)nc34)c2F)c(C)c1 [Ex 72],1000 to 10000

# Other lines, results leading:
row,IC50 [nM],SMILES
1,500 to 1000,COc1ccc(S(=O)(=O)Nc2ccc(F)c(Nc3ncnc4ccc(-c5cncnc5)nc34)c2F)c(C)c1 [Ex 56]
2,1000 to 10000,COc1ccc(S(=O)(=O)Nc2ccc(F)c(Nc3ncnc4ccc(-c5ccsc5)nc34)c2F)c(C)c1 [Ex 58]
3,1000 to 10000,COc1ccc(S(=O)(=O)Nc2ccc(F)c(Nc3ncnc4ccc(-n5cnc6nccnc65)nc34)c2F)c(C)c1 [Ex 60]
4,< 500,COc1ccc(S(=O)(=O)Nc2ccc(F)c(Nc3ncnc4ccc(-c5ccncc5)nc34)c2F)c(C)c1 [Ex 63]
